Consider 26 compounds from patent publication US20180099931A1 (AbbVie S.à.r.l., priority 2016, published 2018).

Like-named read-outs stand apart in the source and are kept apart here. Bounds are passed on as bounds.

The assay has as its target T1, F508delCFTR (Homo sapiens, UniProt P13569, DEL508-508).
T1 construct: expressed in transfected cells; host or cells: CFBE41o- human lung-derived epithelial cells (CFBE4lo-F508delCFTR-HRP), doxycycline-inducible
The assay can be described thus: Cell Surface Expression-Horse Radish Peroxidase (CSE-HRP) Assay.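 On Maximum % activity (with co-corrector): co-corrector and positive control are both the same reference corrector at 2 µM.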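 On Maximum % activity (without co-corrector): percent of the 2 µM on-plate positive control corrector response above DMSO.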 In kind it is cell-based. The note with it: for Maximum % activity (with co-corrector): with co-corrector (2 μM); for Maximum % activity (with co-corrector) / Emax: maximum at any tested concentration, normalized to on-plate positive control; for Emax: without co-corrector, read-out: Maximum % activity (without co-corrector).

Setting [1] is: test compound without co-corrector, read-out: EC50 (without co-corrector).
[2] abbreviates: with co-corrector (2 μM of 3-[(2R,4R)-4-({[1-(2,2-difluoro-1,3-benzodioxol-5-yl)cyclopropyl]carbonyl}amino)-7-methoxy-3,4-dihydro-2H-chromen-2-yl]benzoic acid), read-out: EC50 (with co-corrector).
Setting [3] is: CSE-HRP, test compound without co-corrector, read-out: EC50 (without co-corrector).
Where [4] appears, read: CSE-HRP, with co-corrector (2 μM of 3-[(2R,4R)-4-({[1-(2,2-difluoro-1,3-benzodioxol-5-yl)cyclopropyl]carbonyl}amino)-7-methoxy-3,4-dihydro-2H-chromen-2-yl]benzoic acid), read-out: EC50 (with co-corrector).

T1 sequence (P13569 with tags, fused parts or gaps DEL508-508): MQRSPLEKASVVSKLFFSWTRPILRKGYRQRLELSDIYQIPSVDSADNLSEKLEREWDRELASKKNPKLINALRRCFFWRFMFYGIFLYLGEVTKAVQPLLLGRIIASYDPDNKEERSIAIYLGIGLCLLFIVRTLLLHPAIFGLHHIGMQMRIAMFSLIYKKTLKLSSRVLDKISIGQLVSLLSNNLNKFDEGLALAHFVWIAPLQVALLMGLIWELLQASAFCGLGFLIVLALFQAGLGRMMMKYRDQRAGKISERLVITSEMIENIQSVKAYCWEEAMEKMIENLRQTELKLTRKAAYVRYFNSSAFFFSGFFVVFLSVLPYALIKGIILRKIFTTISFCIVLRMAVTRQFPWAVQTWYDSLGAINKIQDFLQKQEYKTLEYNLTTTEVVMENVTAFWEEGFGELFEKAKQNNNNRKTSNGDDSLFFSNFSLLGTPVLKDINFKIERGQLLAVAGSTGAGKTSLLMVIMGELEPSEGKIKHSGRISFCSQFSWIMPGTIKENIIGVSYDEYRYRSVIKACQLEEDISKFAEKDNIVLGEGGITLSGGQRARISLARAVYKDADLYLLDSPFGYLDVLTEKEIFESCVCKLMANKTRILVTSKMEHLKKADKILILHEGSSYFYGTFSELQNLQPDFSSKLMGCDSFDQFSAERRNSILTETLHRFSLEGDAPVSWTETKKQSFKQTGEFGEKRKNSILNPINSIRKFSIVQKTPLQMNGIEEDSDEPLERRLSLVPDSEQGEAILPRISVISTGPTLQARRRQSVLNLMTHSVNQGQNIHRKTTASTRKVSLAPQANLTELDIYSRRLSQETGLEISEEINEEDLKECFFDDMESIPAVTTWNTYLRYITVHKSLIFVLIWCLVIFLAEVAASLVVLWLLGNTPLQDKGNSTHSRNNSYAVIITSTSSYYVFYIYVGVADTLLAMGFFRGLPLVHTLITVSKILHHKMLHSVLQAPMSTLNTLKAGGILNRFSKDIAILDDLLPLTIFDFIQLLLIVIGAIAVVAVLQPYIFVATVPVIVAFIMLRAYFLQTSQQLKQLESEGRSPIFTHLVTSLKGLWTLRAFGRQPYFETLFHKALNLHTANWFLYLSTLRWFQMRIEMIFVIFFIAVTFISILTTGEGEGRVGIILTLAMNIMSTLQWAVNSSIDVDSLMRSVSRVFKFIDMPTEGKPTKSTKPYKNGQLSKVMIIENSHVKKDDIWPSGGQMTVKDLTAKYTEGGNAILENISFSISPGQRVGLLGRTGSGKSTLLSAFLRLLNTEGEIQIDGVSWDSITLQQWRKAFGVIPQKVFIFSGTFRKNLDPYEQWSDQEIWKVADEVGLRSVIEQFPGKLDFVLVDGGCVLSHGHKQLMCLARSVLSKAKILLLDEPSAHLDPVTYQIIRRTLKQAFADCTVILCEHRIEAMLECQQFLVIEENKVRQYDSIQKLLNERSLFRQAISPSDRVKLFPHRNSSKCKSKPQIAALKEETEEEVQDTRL

The EC50 is the concentration giving half of the maximal effect. In the case of `COc1nc(C(C)(C)C)ccc1CN[C@H]1[C@H](C(C)(C)C)[C@@H](C(=O)O)N(C(=O)[C@@H]2CCCCO2)[C@H]1c1cccnc1N(C)C` [Example I-235], the “Maximum % activity (with co-corrector)” value is given as “+++ (≥350)” and the Emax fell in the range of 100 to 200%. For the same compound, under setting [1], the EC50 was 1 to 10 µM. Moreover, the EC50 under setting [2] was less than 1 µM.

Take `COc1ncc(C2CCC2)cc1CN[C@H]1[C@H](C23CC(C2)C3)[C@@H](C(=O)O)N(C(=O)OC(C)C)[C@H]1c1ccccc1` [Example I-236]: the “Maximum % activity (with co-corrector)” value was “+++ (≥350)” and the Emax lay within 100 to 200%. Besides, the EC50 under setting [1] was 1 to 10 µM. In addition, under setting [2], the EC50 is 1 to 10 µM.

As for `COc1ncc(C2CCC2)cc1CN[C@H]1[C@H](C(C)(C)C)[C@@H](C(=O)O)N(C(=O)C2CCCCC2)[C@H]1c1cccnc1OC` [Example I-237], the “Maximum % activity (with co-corrector)” value is “+++ (≥350)” and the Emax lay in the range of 100 to 200%. In addition, the EC50 under setting [1] lay within 1 to 10 µM. In addition, under setting [2], the EC50 was in the range of 1 to 10 µM.

Consider `COc1ccc(C2(C)CCC2)cc1CN[C@H]1[C@H](C(C)(C)C)[C@@H](C(=O)O)N(C(=O)C2CCCCC2)[C@H]1c1cccnc1OC` [Example I-238], for which the “Maximum % activity (with co-corrector)” value is on record as “+++ (≥350)” and the Emax was more than 200%. Also, the EC50 under setting [1] was 1 to 10 µM. Further, the EC50 under setting [2] was less than 1 µM.

On to `COc1ccc(C(C)(C)C)cc1CN[C@H]1[C@H](C(C)(C)C)[C@@H](C(=O)O)N(C(=O)[C@H](C)c2ccccc2)[C@H]1c1cccnc1OC` [Example I-239], for which the “Maximum % activity (with co-corrector)” value is listed as “+++ (≥350)” and the Emax lay in the range of 100 to 200%. The EC50 under setting [1] lay in the range of 1 to 10 µM. In addition, the EC50 under setting [2] was 1 to 10 µM.

Regarding `COc1ncc(C(F)(F)F)cc1CN[C@H]1[C@H](C(C)(C)C)[C@@H](C(=O)O)N(C(=O)[C@H](C)c2ccccc2)[C@H]1c1cccnc1OC` [Example I-240], the “Maximum % activity (with co-corrector)” value is on record as “+++ (≥350)” and the Emax is less than 100%. Moreover, under setting [1], the EC50 fell in the range of 1 to 10 µM. Moreover, the EC50 under setting [2] fell in the range of 1 to 10 µM.

For the compound `COc1nc(C2CCC2)ccc1CN[C@H]1[C@H](C(C)(C)C)[C@@H](C(=O)O)N(C(=O)C2CCCCC2)[C@H]1c1ccccc1` [Example I-242], the “Maximum % activity (with co-corrector)” value is on record as “+++ (≥350)” and the Emax was in the range of 100 to 200%. Further, the EC50 under setting [1] was in the range of 1 to 10 µM. Further, the EC50 under setting [2] is 1 to 10 µM.

Regarding `COc1ncc(C2CCC2)cc1CN[C@H]1[C@H](C(C)(C)C)[C@@H](C(=O)O)N(C(=O)C2C3CCCC32)[C@H]1c1cccnc1OC` (some centres unmarked) [Example I-243], the “Maximum % activity (with co-corrector)” value is reported as “+++ (≥350)” and the Emax fell in the range of 100 to 200%. Besides, the concentration giving a half-maximal response (EC50) under setting [1] fell in the range of 1 to 10 µM. Besides, the EC50 under setting [2] was 1 to 10 µM.

As for `COc1ccc(C(C)(C)C)cc1CN[C@H]1[C@H](C(C)(C)C)[C@@H](C(=O)O)N(C(=O)OC2COC2)[C@H]1c1ccccc1` [Example I-244, (2S,3S,4S,5S)-3-tert-butyl-4-{[(5-tert-butyl-2-methoxyphenyl)methyl]amino}-1-{[(oxetan-3-yl)oxy]carbonyl}-5-phenylpyrrolidine-2-carboxylic acid], the “Maximum % activity (with co-corrector)” value was “+++ (≥350)” and the Emax is 100 to 200%. Moreover, the concentration giving a half-maximal response (EC50) under setting [1] was in the range of 1 to 10 µM. Moreover, the EC50 under setting [2] lay in the range of 1 to 10 µM.

For `COc1ccc(S(F)(F)(F)(F)F)cc1CN[C@H]1[C@H](C(C)(C)C)[C@@H](C(=O)O)N(C(=O)OC(C)C)[C@H]1c1cccnc1N(C)C` [Example I-245], the “Maximum % activity (with co-corrector)” value is recorded as “+++ (≥350)” and the Emax is more than 200%. Under setting [1], the EC50 was in the range of 1 to 10 µM. Under setting [2], the EC50 was 1 to 10 µM.

For `COc1ccc(C(C)(C)C)cc1CN[C@H]1[C@H](C(C)(C)C)[C@@H](C(=O)O)N(C(=O)[C@@H]2CCCN(C(=O)OC(C)C)C2)[C@H]1c1ccccc1` [Example I-246, (2S,3S,4S,5S)-3-tert-butyl-4-{[(5-tert-butyl-2-methoxyphenyl)methyl]amino}-5-phenyl-1-[(3R)-1-{[(propan-2-yl)oxy]carbonyl}piperidine-3-carbonyl]pyrrolidine-2-carboxylic acid], the “Maximum % activity (with co-corrector)” value is recorded as “+++ (≥350)” and the Emax was more than 200%. For the same compound, under setting [1], the EC50 fell in the range of 1 to 10 µM. Further, under setting [2], the EC50 is 1 to 10 µM.

`CC(C)(C)c1ccc(CN[C@H]2[C@H](C(C)(C)C)[C@@H](C(=O)O)N(C(=O)[C@@H]3CCCC(F)(F)C3)[C@H]2c2ccccc2)c(Cl)n1` [Example I-247]: the “Maximum % activity (with co-corrector)” value was “+++ (≥350)” and the Emax was less than 100%. The EC50 under setting [1] was 1 to 10 µM. Further, the EC50 under setting [2] was in the range of 1 to 10 µM.

Regarding `COc1ccc(C(C)(C)C)cc1CN[C@H]1[C@H](C(C)(C)C)[C@@H](C(=O)O)N(C(=O)C2(c3ccccc3)CC2)[C@H]1c1cccnc1OC` [Example I-248], the “Maximum % activity (with co-corrector)” value was “+++ (≥350)” and the Emax was in the range of 100 to 200%. Moreover, the EC50 under setting [1] was 1 to 10 µM. Besides, under setting [2], the half-maximal effective concentration (EC50) was in the range of 1 to 10 µM.

On to `COc1nc2ccccc2cc1CN[C@H]1[C@H](C(C)(C)C)[C@@H](C(=O)O)N(C(=O)OC(C)C)[C@H]1c1ccccc1C(C)C` [Example I-250], for which the EC50 is, setting by setting: under setting [3], 1 to 10 µM; under setting [4], less than 1 µM. Besides, the “Maximum % activity (with co-corrector)” value (CSE-HRP) was “+++ (≥350)”. Moreover, the Emax (CSE-HRP) is more than 200%.

Consider `COc1cc2c(cc1CN[C@H]1[C@H](C(C)(C)C)[C@@H](C(=O)O)N(C(=O)OC(C)C)[C@H]1c1cccnc1N(C)C)C(C)(C)CCC2(C)C` [Example I-251], for which, under setting [3], the EC50 lay in the range of 1 to 10 µM. Further, the EC50 under setting [4] was 1 to 10 µM. Further, under “CSE-HRP”, the “Maximum % activity (with co-corrector)” value is given as “+++ (≥350)” and the Emax was 100 to 200%.

With `COc1ccc(C(F)(F)F)cc1CN[C@H]1[C@H](C(C)(C)C)[C@@H](C(=O)O)N(C(=O)OC(C)C)[C@H]1c1cccc(Cl)c1` [Example I-252], the EC50 is, setting by setting: under setting [3], 1 to 10 µM; under setting [4], 1 to 10 µM. Besides, the “Maximum % activity (with co-corrector)” value (CSE-HRP) was “+++ (≥350)”. For the same compound, the Emax (CSE-HRP) was more than 200%.

As to `CC[C@H](C(=O)N1[C@H](C(=O)O)[C@@H](C(C)(C)C)[C@H](NCc2cc(C(C)(C)C)ccc2OC)[C@@H]1c1cccnc1OC)c1ccccc1` [Example I-253], the EC50 under setting [3] lay in the range of 1 to 10 µM and the EC50 under setting [4] fell in the range of 1 to 10 µM. The “Maximum % activity (with co-corrector)” value (CSE-HRP) was “+++ (≥350)”. Also, under “CSE-HRP”, the Emax was 100 to 200%.

Regarding `COc1ccc(C(C)(C)C)cc1CN[C@H]1[C@H](C(C)(C)C)[C@@H](C(=O)O)N(C(=O)[C@@]2(C)COc3cc4c(cc32)OC(F)(F)O4)[C@H]1c1cccnc1OC` [Example I-254], the EC50 under setting [3] lay within 1 to 10 µM and the EC50 under setting [4] was 1 to 10 µM. The “Maximum % activity (with co-corrector)” value (CSE-HRP) was “+++ (≥350)”. Further, the Emax (CSE-HRP) is less than 100%.

For the compound `COc1cc(C(F)(F)F)ccc1CN[C@H]1[C@H](C(C)(C)C)[C@@H](C(=O)O)N(C(=O)[C@@H]2CCC[C@@H](OC)C2)[C@H]1c1ccccc1` [Example I-255], under setting [3], the EC50 fell in the range of 1 to 10 µM. For the same compound, under setting [4], the EC50 is 1 to 10 µM. Moreover, where the note is “CSE-HRP”, the “Maximum % activity (with co-corrector)” value is on record as “+++ (≥350)” and the Emax was less than 100%.

Consider `COc1ncc(C(F)(F)F)cc1CN[C@H]1[C@H](C(C)(C)C)[C@@H](C(=O)O)N(C(=O)C2CCCCC2)[C@H]1c1ccccc1C` [Example I-258], for which the EC50 under setting [3] is less than 1 µM. For the same compound, the EC50 under setting [4] is less than 1 µM. For the same compound, where the note is “CSE-HRP”, the “Maximum % activity (with co-corrector)” value was “+++ (≥350)” and the Emax was in the range of 100 to 200%.

As to `COc1ccc(C(C)(C)C)cc1CN[C@H]1[C@H](C(C)(C)C)[C@@H](C(=O)O)N(C(=O)[C@@H]2CCCO2)[C@H]1c1ccccc1C` [Example I-261], under setting [3], the EC50 lay within 1 to 10 µM. Besides, under setting [4], the EC50 is 1 to 10 µM. Under “CSE-HRP”, the “Maximum % activity (with co-corrector)” value is listed as “+++ (≥350)” and the Emax is more than 200%.

Regarding `COc1ncc(C(F)(F)F)cc1CN[C@H]1[C@H](C(C)(C)C)[C@@H](C(=O)O)N(C(=O)[C@@H]2CCCO2)[C@H]1c1ccccc1C` [Example I-262], the EC50 under setting [3] fell in the range of 1 to 10 µM. Besides, the EC50 under setting [4] was 1 to 10 µM. Further, under “CSE-HRP”, the “Maximum % activity (with co-corrector)” value was “+++ (≥350)” and the Emax is more than 200%.

Take `CC(C)OC(=O)N1[C@H](C(=O)O)[C@@H](C(C)(C)C)[C@H](NCCc2ccccc2)[C@@H]1c1ccccc1` [Example I-263]: the EC50 by setting is: under setting [3], 1 to 10 µM; under setting [4], 1 to 10 µM. The “Maximum % activity (with co-corrector)” value (CSE-HRP) was “++ (≥150 and <350)”. Moreover, the Emax (CSE-HRP) is less than 100%.

In the case of `CC(C)OC(=O)N1[C@H](C(=O)O)[C@@H](C(C)(C)C)[C@H](NCC(C)(C)c2ccccc2)[C@@H]1c1ccccc1` [Example I-264], under setting [3], the EC50 fell in the range of 1 to 10 µM. Also, the EC50 under setting [4] was 1 to 10 µM. In addition, for the setting “CSE-HRP”, the “Maximum % activity (with co-corrector)” value is “++ (≥150 and <350)”; the Emax is less than 100%.

In the case of `COc1ncc(C2CCC2)cc1CN[C@H]1[C@H](C(C)(C)C)[C@@H](C(=O)O)N(C(=O)[C@@H]2CCCO2)[C@H]1c1ccccc1C` [Example I-265], under setting [3], the EC50 lay in the range of 1 to 10 µM. Further, under setting [4], the EC50 was in the range of 1 to 10 µM. Besides, where the note is “CSE-HRP”, the “Maximum % activity (with co-corrector)” value is listed as “+++ (≥350)” and the Emax was more than 200%.

With `COc1ncc(C2CCC2)cc1CN[C@H]1[C@H](C(C)(C)C)[C@@H](C(=O)O)N(C(=O)[C@H]2CCCCO2)[C@H]1c1ccccc1C` [Example I-266], the half-maximal effective concentration (EC50) under setting [3] lay within 1 to 10 µM. For the same compound, the EC50 under setting [4] is 1 to 10 µM. Also, where the note is “CSE-HRP”, the “Maximum % activity (with co-corrector)” value is given as “+++ (≥350)” and the Emax was more than 200%.
